# Data published in patent US12495798B2, “Nicotinamide compound and herbicidal composition comprising compound” (KOREA RESEARCH INSTITUTE OF CHEMICAL TECHNOLOGY, priority 2019, dated 2025).
# Tests used:
# Format in all cases: in vivo
# black nightshade = experiment: Herbicidal activity test against upland field weeds (foliar treatment test); design: key to Foliar treatment herbicidal activity, black nightshade: 0 (no control); 100 (complete control); conditions: scale 0-100
# Method in brief: (§1)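 Weeds were raised from seed or rootstocks in horticultural soil in a greenhouse (30±5° C., 14/10 h light/dark), then foliage was hand-sprayed with compound at 50 or 75 g a.i./ha in 50% acetone with 0.1% Tween-20. Control was scored visually 0–100 against untreated plants after 14 days, or 21 if needed.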
# corn = experiment: Phytotoxicity test for field crops (soil treatment test); design: key: 0 (no harm); 9 (complete withered)
# Method in brief: (§2)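 Visual phytotoxicity grading (0 no harm to 9 complete withering, relative to untreated control) 10 and 20 days after a pre-emergence soil spray applied one day post-sowing. Rates 19˜300 g a.i./ha in 33% acetone/0.1% Tween-20; sterilized soil pH 6.1, fertilized; greenhouse 30±5° C, 14/10 h photoperiod.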
# cotton = experiment: as above; design: key: 0 (no harm); 9 (complete withered)
# Method in brief: as §2
# wheat = experiment: as above; design: key: 0 (no harm); 9 (complete withered)
# Method in brief: as §2
# soybean = experiment: as above; design: key: 0 (no harm); 9 (complete withered)
# Method in brief: as §2
# rice = experiment: as above; design: key: 0 (no harm); 9 (complete withered)
# Method in brief: as §2
# quack grass = experiment: Herbicidal activity test against upland field weeds (foliar treatment test); design: key to Foliar treatment herbicidal activity, quack grass: 0 (no control); 100 (complete control); conditions: scale 0-100
# Method in brief: as §1
# sorghum [1] = experiment: as above; conditions: Sorghum, scale 0-100; for plant injury at 50 g/ha: 50 g ai/ha
# Method in brief: as §1
# cocklebur = experiment: Herbicidal activity test against upland field weeds (soil treatment test); design: key to Soil treatment herbicidal activity, Cocklebur: 0 (no control); 100 (complete control); conditions: scale 0 (no control) to 100 (complete control)
# Method in brief: (§3)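 Pre-emergence test: seeds or rootstocks were sown in fertilized sandy loam, and the next day the soil surface was sprayed with compound at 50 or 75 g a.i./ha in 50% acetone/0.1% Tween-20. Plants were grown in a greenhouse (30±5 °C, 14/10 h light/dark), then visually scored 0–100 against untreated at 14 d (21 d if needed).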
# sorghum [2] = experiment: as above; design: key to Soil treatment herbicidal activity, Sorghum: 0 (no control); 100 (complete control); conditions: scale 0 (no control) to 100 (complete control)
# Method in brief: as §3
# barnyard grass = experiment: Herbicidal activity test against upland field weeds (foliar treatment test); conditions: Echinochloa crus-galli, scale 0-100; for pest or weed control at 50 g/ha: 50 g ai/ha
# Method in brief: as §1
# indian jointvetch = experiment: Herbicidal activity test against upland field weeds (soil treatment test); design: key to Soil treatment herbicidal activity, Indian jointvetch: 0 (no control); 100 (complete control); conditions: scale 0 (no control) to 100 (complete control)
# Method in brief: as §3
# velvetleaf = experiment: as above; design: key to Soil treatment herbicidal activity, velvet leaf: 0 (no control); 100 (complete control); conditions: scale 0 (no control) to 100 (complete control); for pest or weed control at 50 g/ha: Abutilon theophrasti, read-out: Soil treatment herbicidal activity, velvet leaf
# Method in brief: as §3
# fall panicum = experiment: as above; design: key to Soil treatment herbicidal activity, Fall panicum: 0 (no control); 100 (complete control); conditions: scale 0 (no control) to 100 (complete control); for pest or weed control at 50 g/ha: Panicum dichotomiflorum
# Method in brief: as §3
# [3] = 50 g ai/ha, Corn (10 days after treatment)
# [4] = 50 g ai/ha, Corn (20 days after treatment)
# [5] = 100 g ai/ha, Corn (10 days after treatment)
# [6] = 100 g ai/ha, Corn (20 days after treatment)
# [7] = 50 g ai/ha, Cotton (10 days after treatment)
# [8] = 50 g ai/ha, Cotton (20 days after treatment)
# [9] = 100 g ai/ha, Cotton (10 days after treatment)
# [10] = 100 g ai/ha, Cotton (20 days after treatment)
# [11] = 50 g ai/ha, Wheat (10 days after treatment)
# [12] = 50 g ai/ha, Wheat (20 days after treatment)
# [13] = 100 g ai/ha, Wheat (10 days after treatment)
# [14] = 100 g ai/ha, Wheat (20 days after treatment)
# [15] = 50 g ai/ha, Soybean (10 days after treatment)
# [16] = 100 g ai/ha, Soybean (10 days after treatment)
# [17] = 100 g ai/ha, Soybean (20 days after treatment)
# [18] = 50 g ai/ha, Rice (10 days after treatment)
# [19] = 50 g ai/ha, Rice (20 days after treatment)
# [20] = 100 g ai/ha, Rice (10 days after treatment)
# [21] = 100 g ai/ha, Rice (20 days after treatment)
# [22] = 50 g ai/ha, Soybean (20 days after treatment)
SMILES,"Soil treatment phytotoxicity, Corn (corn; [3])","Soil treatment phytotoxicity, Corn (corn; [4])","Soil treatment phytotoxicity, Corn (corn; [5])","Soil treatment phytotoxicity, Corn (corn; [6])","Soil treatment phytotoxicity, Cotton (cotton; [7])","Soil treatment phytotoxicity, Cotton (cotton; [8])","Soil treatment phytotoxicity, Cotton (cotton; [9])","Soil treatment phytotoxicity, Cotton (cotton; [10])","Soil treatment phytotoxicity, Wheat (wheat; [11])","Soil treatment phytotoxicity, Wheat (wheat; [12])","Soil treatment phytotoxicity, Wheat (wheat; [13])","Soil treatment phytotoxicity, Wheat (wheat; [14])","Soil treatment phytotoxicity, Soybean (soybean; [15])","Soil treatment phytotoxicity, Soybean (soybean; [16])","Soil treatment phytotoxicity, Soybean (soybean; [17])","Soil treatment phytotoxicity, Rice (rice; [18])","Soil treatment phytotoxicity, Rice (rice; [19])","Soil treatment phytotoxicity, Rice (rice; [20])","Soil treatment phytotoxicity, Rice (rice; [21])","Foliar treatment herbicidal activity, quack grass (quack grass; 50 g ai/ha)",other results
"Cn1nnnc1COCc1nc(C(F)(F)F)ccc1C(=O)Nc1nnnn1C [Compound No. 1-61, N-(1-methyl-1H-tetrazol-5-yl)-2-(((1-methyl-1H-tetrazol-5-yl)methoxy)methyl)-6-(trifluoromethyl)nicotinamide]",0,0,0,0,1,1,2,2,0,0,0,0,0,3,6,0,1,1,6,0,"Foliar treatment herbicidal activity, black nightshade (black nightshade; 50 g ai/ha): 100; plant injury at 50 g/ha (sorghum [1]): 20%; Soil treatment herbicidal activity, Cocklebur (cocklebur; 50 g ai/ha): 0; Soil treatment herbicidal activity, Sorghum (sorghum [2]; 50 g ai/ha): 0; pest or weed control at 50 g/ha (barnyard grass): 95%; Soil treatment herbicidal activity, Indian jointvetch (indian jointvetch; 50 g ai/ha): 100; pest or weed control at 50 g/ha (velvetleaf; 50 g ai/ha): 90%; pest or weed control at 50 g/ha (fall panicum; 50 g ai/ha): 95%"
"Cn1ncnc1COCc1nc(C(F)(F)F)ccc1C(=O)Nc1nnnn1C [Compound No. 1-102, 2-(((1-methyl-1H-1,2,4-triazol-5-yl)methoxy)methyl)-N-(1-methyl-1H-tetrazol-5-yl)-6-(trifluoromethyl)nicotinamide]",0,0,0,0,0,0,1,2,0,–,0,0,0,0,0,5,5,5,6,0,"pest or weed control at 50 g/ha (black nightshade; Solanum nigrum, 50 g ai/ha): 95%; Soil treatment phytotoxicity, Soybean (soybean; [22]): 0; plant injury at 50 g/ha (sorghum [1]): 50%; Soil treatment herbicidal activity, Cocklebur (cocklebur; 50 g ai/ha): 0; Soil treatment herbicidal activity, Sorghum (sorghum [2]; 50 g ai/ha): 0; pest or weed control at 50 g/ha (barnyard grass): 80%; pest or weed control at 50 g/ha (indian jointvetch; 50 g ai/ha): 20%; pest or weed control at 50 g/ha (velvetleaf; 50 g ai/ha): 40%; pest or weed control at 50 g/ha (fall panicum; 50 g ai/ha): 70%"
"CN(Cc1nnn(C)n1)c1nc(C(F)(F)F)ccc1C(=O)Nc1nnnn1C [Compound No. 2-26, 2-(methyl((2-methyl-2H-tetrazol-5-yl)methyl)amino)-N-(1-methyl-1H-tetrazol-5-yl)-6-(trifluoromethyl)nicotinamide]",0,0,0,0,1,4,1,4,0,0,0,0,6,7,7,3,9,6,9,–,"Foliar treatment herbicidal activity, black nightshade (black nightshade; 75 g ai/ha): 100; Soil treatment phytotoxicity, Soybean (soybean; [22]): 4; Foliar treatment herbicidal activity, quack grass (quack grass; 75 g ai/ha): 0; plant injury at 75 g/ha (sorghum [1]; 75 g ai/ha): 10%; pest or weed control at 75 g/ha (cocklebur; Xanthium strumarium, 75 g ai/ha): 98%; plant injury at 75 g/ha (sorghum [2]; Sorghum, 75 g ai/ha): 20%; pest or weed control at 75 g/ha (barnyard grass; 75 g ai/ha): 98%; Soil treatment herbicidal activity, Indian jointvetch (indian jointvetch; 75 g ai/ha): 100; Soil treatment herbicidal activity, velvet leaf (velvetleaf; 75 g ai/ha): 100; Soil treatment herbicidal activity, Fall panicum (fall panicum; 75 g ai/ha): 100"
"CON(Cc1nnn(C)n1)c1nc(C(F)(F)F)ccc1C(=O)Nc1nnnn1C [Compound No. 2-30, 2-(methoxy((2-methyl-2H-tetrazol-5-yl)methyl)amino)-N-(1-methyl-1H-tetrazol-5-yl)-6-(trifluoromethyl)nicotinamide]",0,0,0,0,2,9,2,9,0,1,0,1,7,7,7,4,9,6,9,0,"Foliar treatment herbicidal activity, black nightshade (black nightshade; 50 g ai/ha): 100; Soil treatment phytotoxicity, Soybean (soybean; [22]): 7; plant injury at 50 g/ha (sorghum [1]): 20%; pest or weed control at 50 g/ha (cocklebur; Xanthium strumarium, 50 g ai/ha): 90%; plant injury at 50 g/ha (sorghum [2]; Sorghum, 50 g ai/ha): 50%; pest or weed control at 50 g/ha (barnyard grass): 95%; Soil treatment herbicidal activity, Indian jointvetch (indian jointvetch; 50 g ai/ha): 100; Soil treatment herbicidal activity, velvet leaf (velvetleaf; 50 g ai/ha): 100; Soil treatment herbicidal activity, Fall panicum (fall panicum; 50 g ai/ha): 100"
